Where two headings read alike, the source gives them in different places.
Assays:
[1] = Pharmacokinetic evaluation of asenapine and asenapine prodrugs in rats; assay type: in vivo, Sprague-Dawley rats; conditions: rat, 10 mg/rat IM
Method: Animals: 18 Male Sprague-Dawley rats (Charles River Laboratories, Wilmington, Mass.) were used in the study. Three groups of 6 rats were used and are referred to in this study as Groups A, B and C. Rats were approximately 350-375 g at time of arrival. Rats are housed 2 per cage with ad libitum chow and water. Environmental conditions in the housing room: 64-67° F., 30% to 70% relative humidity, and 12:12-h light: dark cycle. All experiments were approved by the institutional animal care and use committee.
Test Compounds: The following formulations of Asenapine parent drug and prodrug compounds of the invention were used in the study.
Pharmacokinetics study: Rats were dosed IM by means of a 23 gauge, 1 in. needle with 1 cc syringe 0.3 mL suspension was withdrawn from the vial containing the test compound. The rat was injected in the muscles of the hind limb after anesthesia with isoflurane. Blood samples were collected via a lateral tail vein after brief anesthesia with Isoflurane. A 271/2 G needle and 1 cc syringe without an anticoagulant was used for the blood collection. Approximately 350 μL of whole blood was collected at each sampling time point of 6 hours, 24 hours and 2, 5, 7, 9, 12, 14, 21, 28, 35 days after administration. Once collected, whole blood was immediately transferred to tubes containing K2 EDTA, inverted 10-15 times and immediately placed on ice. The tubes were centrifuged for 2 minutes at >14,000 g′ s (11500 RPMs using Eppendorf Centrifuge 5417C, F45-30-11 rotor) at room temperature to separate plasma. Plasma samples were transferred to labeled plain tubes (MICROTAINER®; MFG# BD5962) and stored frozen at <−70° C.
Drug concentrations in plasma samples were analyzed by liquid chromatography-mass spectroscopy using appropriate parameters for each compound. Half-life, volume of distribution, clearance, maximal concentration, and AUC were calculated by using WinNonlin version 5.2 software (Pharsight, St. Louis, Mo.).

[2] = Excerpt: At pH 4 and 5, 0.1 M citrate buffers were used, while for pH 6, 7 and 8a set of 0.1 M phosphate buffers were used. Each buffer also contained 0.2 M NaCl. No cosolvents or other potentially solubilizing components were included. Buffer preparations were subdivided in order to individually test the solubility of only one material in a given buffer sample.
[3] = Solution stability of asenapine prodrugs as a function of pH; assay type: physicochemical; conditions: 0.01M buffers pH 2.11-9.01 with acetonitrile, 25° C., HPLC at 1, 4, 10, 24 hours; compared with asenapine octanoate (FIGS. 1 and 2)
Method: The asenapine derived prodrugs were prepared at approximately 300 ug/mL in buffers with acetonitrile (see table of buffers below). The initial ratio of prodrug/parent was measured using a freshly prepared solution in unbuffered water. Acetonitrile was titrated into all samples as needed to ensure the complete dissolution of the compounds. The amount of acetonitrile varied depending on the solubility of each compound (see Note 1). 1.5 mL of each stability sample was transferred into a HPLC vial and the vials were maintained at 25° C. in the temperature controlled sample compartment of the HPLC. Each sample was assayed by HPLC after 1, 4, 10, and 24 hours for prodrug and asenapine content (see Note 2).
The fraction of prodrug remaining at each time point was calculated as Fraction Prodrug=(HPLC Area of Prodrug)/(HPLC area of prodrug+asenapine)(see Note 3). The loss of prodrug was then fit to the equation for first order decay: Fraction Prodrug=(Initial Fraction prodrug)*e^−kt where t=time (in hours) and k is the rate constant for decay. Finally, the half-lives were calculated as: t1/2=0.693/k
Note 1: The acetonitrile concentration is not expected to have a large impact on the degradation rate since the rate follows first order decay with respect to compound (ie, the rate constant is independent of the concentration). […]

## CCC(C)(C)C(=O)OC[N+]1(C)CC2c3ccccc3Oc3ccc(Cl)cc3C2C1.[I-] (stereo not drawn) [ASN-83, 5-chloro-2-(((2,2-dimethylbutanoyl)oxy)methyl)-2-methyl-2,3,3a,12b-tetrahydro-1H-dibenzo[2,3:6,7]oxepino[4,5-c]pyrrol-2-ium iodide]
[1]; plasma, compared with parent Asenapine formulation and Asenapine palmitate prodrug (FIG. 3)
  Cmax of the Asenapine released: lower

## CCC(C)(C)C(=O)OC[N+]1(C)CC2c3ccccc3Oc3ccc(Cl)cc3C2C1.[I-] (stereo not drawn) [Asenapine dimethyl butyrate prodrug, asenapine (α,α)-dimethyl butyrate iodide]
[1]; 6 hours to 35 days, compared with Asenapine or Asenapine palmitate prodrug
  decrease in plasma concentration over all the time points sampled: more gradual decrease
[1]; compared with Asenapine or Asenapine palmitate prodrug
  duration of asenapine pharmacokinetics in the animals: longer duration

## CCCCCCCCCCCCC(C)(C)C(=O)OC[N+]1(C)CCN(C2=Nc3ccccc3Nc3sc(C)cc32)CC1.[I-] [Compound 18, 1-(((2,2-dimethyltetradecanoyl)oxy)methyl)-1-methyl-4-(2-methyl-10H-benzo[b]thieno[2,3-e][1,4]diazepin-4-yl)piperazin-1-ium iodide]
[2]
  variation in solubility across the pH range studied: less than 2 fold

## CC(C)(C)C(=O)OC[N+]1(C)CC2c3ccccc3Oc3ccc(Cl)cc3C2C1.[Cl-] (stereo not drawn) [asenapine pivalate, asenapine pivalate prodrug]
[3]
  Solution stability as a function of pH: more stable

## Cc1cc2c(s1)Nc1ccccc1N=C2N1CCN(C)CC1.O.O=C(O)c1cc2ccccc2c(Cc2c(O)c(C(=O)O)cc3ccccc23)c1O [olanzapine pamoate salt, olanzapine pamoate, reference compound]
[2]; room temperature, 0.1 M citrate (pH 4, 5) or phosphate (pH 6, 7, 8) buffers with 0.2 M NaCl, pH range 4-9 (FIG. 4)
  variation in solubility across the pH range studied: > 10 fold

— patent publication US9670200B2, “Quaternary ammonium salt prodrugs” (Alkermes Pharma Ireland Limited, priority 2010, dated 2017)
